Literature values in patent US10786531B2, “Mineral salt-sulfonic acid compositions and methods of use” (BMG PHARMA SPA, priority 2009, dated 2020).
Like-named read-outs stand apart in the source and are kept apart here.

Key:
[1] = solutions of 0.2-1%

| Compound | dermal irritancy (dermal abrasion; 20% suspension) | dermal irritancy (dermal abrasion; 1% aqueous) | other results |
| --- | --- | --- | --- |
| CC(=O)[O-].CC(=O)[O-].[Zn+2] [zinc acetate] | – | – | dermal irritancy (dermal abrasion; 20% aqueous): slightly less irritant |
| [O]=[Zn] [zinc oxide] | not overtly irritant | – | – |
| O=S(=O)([O-])[O-].[Zn+2] [zinc sulfate] | – | not overtly irritant | irritation when applied circumorally [1]: severe irritation |
| zinc pyrithione | not overtly irritant | – | – |
| [Cl-].[Cl-].[Zn+2] [zinc chloride] | – | severe irritant | – |
